# Marks after values point to notes of the source that are not given here.
# Key:
# AKT = assay: Ratio of pPRAS40/total PRAS40 in platelet-rich plasma (electrochemiluminescence); format: in vivo, human; settings: at any time point; DEP, RMP and SAP; dose levels 2 to 5 (8 to 32 mg/body/day)
# Protocol: Blood samples for pharmacokinetic analysis were collected immediately prior to dosing (0 h) and at 0.5, 1, 2, 3, 4, 6, 8, 12, and 24 h post-dose on Day 1 and Day 21 of Cycle 1 for patients in the DEP (QD dosing). For patients who received intermittent dosing regimens, blood was collected immediately prior to dosing (0 h) and at 1, 2, 3, 4, 6, 8, 10, and 24 h post-dose on Cycle 1 Day 1; immediately prior to dosing (0 h) on Cycle 1 Days 3, 4, and 8; and immediately prior to dosing (0 h) and at 1, 2, 3, 4, 6, 8, 10, 24, 48, and 96 h post-dose on Cycle 1 Day 18. […]
# The pharmacodynamic activity of TAS-117 for AKT inhibition was evaluated by the change in the ratio of pPRAS40 (threonine 246) to total PRAS40 in platelet-rich plasma samples before and after TAS-117 administration. The phosphorylation status of PRAS40 in the blood was measured with an electrochemiluminescence detection assay using a Meso Scale Discovery instrument (Meso Scale Diagnostics, Rockville, MD, US). For efficacy, solid tumors were assessed using Response Evaluation Criteria in Solid Tumors (RECIST; version 1.1). Computed tomography scans were evaluated at baseline, every 6 weeks after initiating TAS-117 administration, and at the time of study discontinuation.
# [1] = system: multiple tumor cell lines derived from human cancers; design: method as in data on file, Taiho Pharmaceutical Co., Ltd.; settings: breast, ovarian, gastric, endometrial and myeloma lines; ref data on file, Taiho Pharmaceutical Co., Ltd.; cited from earlier work
# [2] = Plasma and urine pharmacokinetics of TAS-117 in patients; format: in vivo, human
# Protocol: Blood samples for pharmacokinetic analysis were collected immediately prior to dosing (0 h) and at 0.5, 1, 2, 3, 4, 6, 8, 12, and 24 h post-dose on Day 1 and Day 21 of Cycle 1 for patients in the DEP (QD dosing). For patients who received intermittent dosing regimens, blood was collected immediately prior to dosing (0 h) and at 1, 2, 3, 4, 6, 8, 10, and 24 h post-dose on Cycle 1 Day 1; immediately prior to dosing (0 h) on Cycle 1 Days 3, 4, and 8; and immediately prior to dosing (0 h) and at 1, 2, 3, 4, 6, 8, 10, 24, 48, and 96 h post-dose on Cycle 1 Day 18. Urine samples for pharmacokinetic analysis were collected immediately prior to dosing (single sample collection) and from 0 to 6 h and from 6 to 12 h and 12 to 24 h post-dose on Day 1 of Cycle 1 for both QD and intermittent dosing. Blood samples for pharmacodynamic analysis were collected at pre-dose and 4, 8, and 24 h post-dose on Cycle 1 Day 1, and at pre-dose and 4 h post-dose on Cycle 1 Day 21 (QD dosing) or Cycle 1 Day 18 (intermittent dosing).
# Descriptive data were used to summarize safety data and antitumor activity. Pharmacokinetic parameters were derived using non-compartmental analysis and summarized descriptively by dose level, study day, and study phase. […] The accumulation of TAS-117 was assessed by comparing pharmacokinetic parameters on Day 1 and Day 21 (QD) or Day 18 (intermittent dosing). Pharmacodynamic data were presented using summary statistics of the ratio of pPRAS40/total PRAS40 to baseline values (pre-dose) on Day 1 and Day 18 or 21, by dose level and treatment regimen. Pharmacogenomics data were summarized, and the relevance between biomarkers and efficacy was analyzed using Fisher’s Exact test.
# P-values < 0.05 were considered significant. Missing data were not imputed, and analyses were performed using all available data. Plasma pharmacokinetic parameters were evaluated using Phoenix® WinNonlin® software (Pharsight Corporation as part of Certara, Princeton, NJ, US, Version 8.1 or 8.3). Statistical analyses were performed using SAS version 9.4 (SAS Institute; Cary, NC, US).
# [3] = DEP, Cycle 1 Day 1, 8 mg QD, n = 1
# [4] = DEP, Cycle 1 Day 1, 16 mg QD, n = 6
# [5] = DEP, Cycle 1 Day 1, 24 mg QD, n = 3
# [6] = DEP, Cycle 1 Day 1, 24 mg QD, n = 2
# [7] = DEP, Cycle 1 Day 21, 8 mg QD, n = 1
# [8] = DEP, Cycle 1 Day 21, 16 mg QD, n = 3
# [9] = DEP, Cycle 1 Day 21, 16 mg QD, n = 2
# [10] = DEP, Day 21 vs Day 1, 16 mg QD, n = 3
# [11] = RMP, Cycle 1 Day 1, 24 mg intermittent dosing (4 days on/3 days off), n = 6
# [12] = RMP, Cycle 1 Day 1, 24 mg intermittent dosing (4 days on/3 days off), n = 5
# [13] = RMP, Cycle 1 Day 1, 32 mg intermittent dosing (4 days on/3 days off), n = 4
# [14] = RMP, Cycle 1 Day 18, 24 mg intermittent dosing (4 days on/3 days off), n = 5
# [15] = RMP, Cycle 1 Day 18, 32 mg intermittent dosing (4 days on/3 days off), n = 1
# [16] = RMP, Day 18 vs Day 1, 24 mg intermittent dosing, n = 5
# [17] = RMP, Day 18 vs Day 1, 32 mg intermittent dosing, n = 1
structure (smiles),measurement,setting,value
C[C@]1(O)C[C@@](N)(c2ccc(-c3nc4n(c3-c3ccccc3)COc3ccncc3-4)cc2)C1 [TAS-117],Reduction in the level of pPRAS40,AKT,> 50%
same,Anti-proliferative activity,[1],strong anti-proliferative activity
same,"Dose proportionality of Cmax, AUClast and AUC0–24",[2]; 8 to 32 mg dose range,dose proportional
same,AUC0–24,[2]; [3],164 ng·h/mL
same,AUClast,[2]; [3],165 ng·h/mL
same,CLr,[2]; [3],4.11 L/h
same,Cmax,[2]; [3],8.82 ng/mL
same,t1/2,[2]; [3],21.96 h
same,tmax,[2]; [3],1.93 h
same,Fe,"[2]; DEP, Cycle 1 Day 1, 8 mg QD, n = 1, urinary excretion rate as percentage of dose",8.45%
same,"AUC0–24, Mean (SD)",[2]; [4],315 (73) ng·hr/mL
same,"AUC0–24, gMean",[2]; [4],308 ng·h/mL
same,"AUClast, Mean (SD)",[2]; [4],316 (73) ng·hr/mL
same,"AUClast, gMean",[2]; [4],308 ng·h/mL
same,"CLr, Mean (SD)",[2]; [4],5.20 (2.19) L/h
same,"CLr, gMean",[2]; [4],4.78 L/h
same,"Cmax, Mean (SD)",[2]; [4],25.1 (7.66) ng/mL
same,"Cmax, gMean",[2]; [4],24.1 ng/mL
same,"Fe, Mean (SD)",[2]; [4],10.43 (4.94) %
same,"Fe, gMean",[2]; [4],9.20%
same,"t1/2, Mean (SD)",[2]; [4],26.98 (6.06) h
same,"t1/2, gMean",[2]; [4],26.40 h
same,"tmax, median (min, max)",[2]; [4],"2.98 (1.88, 3.89)^c h"
same,"AUC0–24, Mean (SD)",[2]; [5],438 (194) ng·hr/mL
same,"AUC0–24, gMean",[2]; [5],407 ng·h/mL
same,"AUClast, Mean (SD)",[2]; [5],438 (193) ng·hr/mL
same,"AUClast, gMean",[2]; [5],408 ng·h/mL
same,"CLr, Mean (SD)",[2]; [5],6.39 (2.72) L/h
same,"CLr, gMean",[2]; [5],6.04 L/h
same,"Cmax, Mean (SD)",[2]; [5],31.0 (15.7) ng/mL
same,"Cmax, gMean",[2]; [5],28.6 ng/mL
same,"Fe, Mean (SD)",[2]; [5],10.48 (2.73) %
same,"Fe, gMean",[2]; [5],10.25%
same,"tmax, median (min, max)",[2]; [5],"3.98 (3.92, 6.00)^c h"
same,"t1/2, Mean (SD)",[2]; [6],23.06 (NC)^d h
same,"t1/2, gMean",[2]; [6],22.61^d h
same,AUClast,[2]; [7],604 ng·h/mL
same,Cmax,[2]; [7],33.1 ng/mL
same,tmax,[2]; [7],7.85 h
same,"AUC0–24, Mean (SD)",[2]; [8],865 (216) ng·hr/mL
same,"AUC0–24, gMean",[2]; [8],846 ng·h/mL
same,"AUClast, Mean (SD)",[2]; [8],864 (220) ng·hr/mL
same,"AUClast, gMean",[2]; [8],844 ng·h/mL
same,"Cmax, Mean (SD)",[2]; [8],61.4 (22.2) ng/mL
same,"Cmax, gMean",[2]; [8],58.3 ng/mL
same,"tmax, median (min, max)",[2]; [8],"1.93 (1.87, 2.02)^c h"
same,"t1/2, Mean (SD)",[2]; [9],41.65 (NC)^d h
same,"t1/2, gMean",[2]; [9],41.23^d h
same,Observed accumulation ratio of Cmax,"[2]; DEP, Day 21 vs Day 1, 8 mg QD, n = 1",3.75
same,"Observed accumulation ratio of AUC0–24, Mean (SD)",[2]; [10],2.84 (0.04)
same,"Observed accumulation ratio of AUC0–24, gMean",[2]; [10],2.83
same,"Observed accumulation ratio of Cmax, Mean (SD)",[2]; [10],2.71 (0.48)
same,"Observed accumulation ratio of Cmax, gMean",[2]; [10],2.69
same,"AUC0–24, Mean (SD)",[2]; [11],543 (108) ng·hr/mL
same,"AUC0–24, gMean",[2]; [11],534 ng·h/mL
same,"AUClast, Mean (SD)",[2]; [11],542 (107) ng·hr/mL
same,"AUClast, gMean",[2]; [11],533 ng·h/mL
same,"CLr, Mean (SD)",[2]; [11],4.55 (1.43) L/h
same,"CLr, gMean",[2]; [11],4.34 L/h
same,"Cmax, Mean (SD)",[2]; [11],42.1 (11.1) ng/mL
same,"Cmax, gMean",[2]; [11],40.9 ng/mL
same,"Fe, Mean (SD)",[2]; [11],10.02 (2.85) %
same,"Fe, gMean",[2]; [11],9.65%
same,"tmax, median (min, max)",[2]; [11],"3.28 (0.95, 4.15)^c h"
same,"t1/2, Mean (SD)",[2]; [12],31.92 (10.77)^e h
same,"t1/2, gMean",[2]; [12],30.44^e h
same,"AUC0–24, Mean (SD)",[2]; [13],770 (155) ng·hr/mL
same,"AUC0–24, gMean",[2]; [13],758 ng·h/mL
same,"AUClast, Mean (SD)",[2]; [13],774 (162) ng·hr/mL
same,"AUClast, gMean",[2]; [13],761 ng·h/mL
same,"CLr, Mean (SD)",[2]; [13],4.12 (1.82) L/h
same,"CLr, gMean",[2]; [13],3.80 L/h
same,"Cmax, Mean (SD)",[2]; [13],60 (18.4) ng/mL
same,"Cmax, gMean",[2]; [13],58.0 ng/mL
same,"Fe, Mean (SD)",[2]; [13],9.32 (2.71) %
same,"Fe, gMean",[2]; [13],9.01%
same,"t1/2, Mean (SD)",[2]; [13],24.02 (3.80) h
same,"t1/2, gMean",[2]; [13],23.81 h
same,"tmax, median (min, max)",[2]; [13],"2.43 (1.95, 4.03)^c h"
same,"AUC0–24, Mean (SD)",[2]; [14],1498 (500) ng·hr/mL
same,"AUC0–24, gMean",[2]; [14],1433 ng·h/mL
same,"AUClast, Mean (SD)",[2]; [14],3542 (1023) ng·hr/mL
same,"AUClast, gMean",[2]; [14],3420 ng·h/mL
same,"Cmax, Mean (SD)",[2]; [14],89.9 (37.4) ng/mL
same,"Cmax, gMean",[2]; [14],83.8 ng/mL
same,"t1/2, Mean (SD)",[2]; [14],49.31 (7.73) h
same,"t1/2, gMean",[2]; [14],48.83 h
same,"tmax, median (min, max)",[2]; [14],"2.00 (0.98, 5.92)^c h"
same,AUC0–24,[2]; [15],2105 ng·h/mL
same,AUClast,[2]; [15],5558 ng·h/mL
same,Cmax,[2]; [15],160 ng/mL
same,t1/2,[2]; [15],49.63 h
same,tmax,[2]; [15],1.00 h
same,"Observed accumulation ratio of AUC0–24, Mean (SD)",[2]; [16],2.70 (0.37)
same,"Observed accumulation ratio of AUC0–24, gMean",[2]; [16],2.68
same,"Observed accumulation ratio of Cmax, Mean (SD)",[2]; [16],2.06 (0.73)
same,"Observed accumulation ratio of Cmax, gMean",[2]; [16],1.95
same,Observed accumulation ratio of AUC0–24,[2]; [17],2.69
same,Observed accumulation ratio of Cmax,[2]; [17],2.50
same,Steady state reached by,[2]; indicated by t1/2 data,≤ 8 days
